From US20240158391A1, “DERIVATIVES OF 4-(IMIDAZO[1,2-A]PYRIDIN-3-YL)-N-(PYRIDIN-3-YL) PYRIMIDIN-2- AMINE FOR TREATING PROLIFERATIVE DISEASES AND CONDITIONS” (AUCENTRA THERAPEUTICS PTY LTD, priority 2019, published 2024) come the findings set out here.

One assay concerns the target CDK1/CyclinB (Homo sapiens, UniProt P06493). The assay can be described thus: ADP Glo kinase assay, CDK1/CyclinB. In kind it is biochemical. The following applies: for Ki: Km ATP, read-out: Enzymatic inhibition, Ki, CDK1 B; for remaining activity at 1 µM: compound at 1 μM, read-out: Residual enzymatic activity (%) at 1 μM, CDK1 B. How it is done:
(§1) Test compounds are used in 1:3 serial dilutions for 10 concentrations (from 10-0.0005 μM) in 0.5% DMSO. […] The kinase reactions are run for optimised time period at room temperature and then the reaction is stopped by adding 5 μL of ADP Glo reagent.

A further assay concerns the target CDK2/CyclinA2 (Homo sapiens, UniProt P24941). As to the kind of experiment: ADP Glo kinase assay, CDK2/CyclinA2. Type of assay: biochemical. The note with it: for Ki: Km ATP, read-out: Enzymatic inhibition, Ki, CDK2 A; for remaining activity at 1 µM: compound at 1 μM, read-out: Residual enzymatic activity (%) at 1 μM, CDK2 A. The method, then: as §1
The next assay addresses CDK4/CyclinD1 (Homo sapiens, UniProt P11802). As to the kind of experiment: ADP Glo kinase assay, CDK4/CyclinD1. In kind it is biochemical. The note with it: for Ki: Km ATP, read-out: Enzymatic inhibition, Ki, CDK4 D1; for remaining activity at 1 µM: compound at 1 μM, read-out: Residual enzymatic activity (%) at 1 μM, CDK4 D1. How it is done:
as §1

In the next assay the target is CDK9/CyclinT1 (Homo sapiens, UniProt P50750). The assay can be described thus: ADP Glo kinase assay, CDK9/CyclinT1. Type of assay: biochemical. The following applies: for Ki: CDK9/CyclinT1, Km ATP, read-out: Enzymatic inhibition, Ki, CDK9 T1. The method, then: as §1
Chain of CDK9/CyclinT1 (P50750 whole entry, species assumed): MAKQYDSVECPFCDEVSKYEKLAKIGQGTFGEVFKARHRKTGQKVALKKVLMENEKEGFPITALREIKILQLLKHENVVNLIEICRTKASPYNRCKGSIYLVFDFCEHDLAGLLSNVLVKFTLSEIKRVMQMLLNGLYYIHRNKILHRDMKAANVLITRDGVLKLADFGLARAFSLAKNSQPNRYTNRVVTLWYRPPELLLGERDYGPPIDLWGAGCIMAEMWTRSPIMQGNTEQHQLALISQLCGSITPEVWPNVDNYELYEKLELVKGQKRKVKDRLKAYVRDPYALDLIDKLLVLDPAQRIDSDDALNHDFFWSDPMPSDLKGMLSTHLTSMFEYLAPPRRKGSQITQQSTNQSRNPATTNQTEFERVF
Chain of CDK9/CyclinT1 (O60563 whole entry partner, species assumed): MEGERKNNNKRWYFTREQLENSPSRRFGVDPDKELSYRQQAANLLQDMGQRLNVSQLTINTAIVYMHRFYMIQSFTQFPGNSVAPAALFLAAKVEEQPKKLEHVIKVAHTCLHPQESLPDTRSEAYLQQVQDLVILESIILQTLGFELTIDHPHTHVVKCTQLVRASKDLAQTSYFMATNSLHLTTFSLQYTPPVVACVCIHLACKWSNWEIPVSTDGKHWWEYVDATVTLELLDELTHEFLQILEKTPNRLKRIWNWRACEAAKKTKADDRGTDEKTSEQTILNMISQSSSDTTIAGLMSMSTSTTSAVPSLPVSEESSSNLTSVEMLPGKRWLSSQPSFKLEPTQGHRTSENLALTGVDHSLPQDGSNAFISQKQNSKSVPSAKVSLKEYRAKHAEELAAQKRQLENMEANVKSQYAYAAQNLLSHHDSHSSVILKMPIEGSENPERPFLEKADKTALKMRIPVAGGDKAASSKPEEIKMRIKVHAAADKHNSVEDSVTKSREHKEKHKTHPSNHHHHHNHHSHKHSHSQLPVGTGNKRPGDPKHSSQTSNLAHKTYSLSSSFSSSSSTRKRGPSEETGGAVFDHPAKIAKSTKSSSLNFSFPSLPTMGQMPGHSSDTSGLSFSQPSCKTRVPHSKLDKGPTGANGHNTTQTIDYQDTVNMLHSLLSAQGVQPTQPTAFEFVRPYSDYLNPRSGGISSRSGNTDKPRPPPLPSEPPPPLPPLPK
The target in a further assay is T1, FLT3-ITD (Homo sapiens, UniProt P36888).
T1 sequence (P36888 1-993): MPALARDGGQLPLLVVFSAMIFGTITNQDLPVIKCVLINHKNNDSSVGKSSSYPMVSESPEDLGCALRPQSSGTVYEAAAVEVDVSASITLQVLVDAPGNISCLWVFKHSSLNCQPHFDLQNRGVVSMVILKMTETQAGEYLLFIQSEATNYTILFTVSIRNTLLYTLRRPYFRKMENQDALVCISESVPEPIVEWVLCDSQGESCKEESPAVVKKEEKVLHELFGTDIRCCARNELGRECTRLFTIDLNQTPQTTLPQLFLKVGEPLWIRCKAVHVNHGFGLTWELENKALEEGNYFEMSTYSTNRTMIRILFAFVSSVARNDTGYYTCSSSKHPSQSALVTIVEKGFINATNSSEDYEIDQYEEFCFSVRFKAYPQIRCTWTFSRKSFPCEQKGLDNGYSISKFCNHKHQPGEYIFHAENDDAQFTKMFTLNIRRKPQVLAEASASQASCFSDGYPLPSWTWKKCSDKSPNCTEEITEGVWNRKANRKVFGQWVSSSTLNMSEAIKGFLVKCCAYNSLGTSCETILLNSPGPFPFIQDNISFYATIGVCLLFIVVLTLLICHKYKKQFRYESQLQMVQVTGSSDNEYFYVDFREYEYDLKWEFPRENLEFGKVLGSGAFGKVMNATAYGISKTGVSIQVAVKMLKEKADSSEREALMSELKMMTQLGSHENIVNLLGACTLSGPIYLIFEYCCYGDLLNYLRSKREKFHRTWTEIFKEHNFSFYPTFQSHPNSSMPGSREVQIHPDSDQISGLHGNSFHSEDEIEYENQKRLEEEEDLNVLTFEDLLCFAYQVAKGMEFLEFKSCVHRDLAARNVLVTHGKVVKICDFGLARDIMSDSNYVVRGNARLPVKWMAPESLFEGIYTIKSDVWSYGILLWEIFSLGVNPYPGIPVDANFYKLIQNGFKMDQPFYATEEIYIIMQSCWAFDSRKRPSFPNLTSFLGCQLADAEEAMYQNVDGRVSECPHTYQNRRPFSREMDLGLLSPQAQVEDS
As to the kind of experiment: ADP Glo kinase assay, FLT3-ITD. In kind it is biochemical. The following applies: for Ki: Km ATP 100 μM, read-out: Enzymatic inhibition, Ki, FLT3-ITD. The method, then: as §1

A further assay has as its system MV-4-11. The assay can be described thus: Proliferation assay (resazurin, leukemia cell lines), MV-4-11. The following applies: Homo sapiens, MV4-11, read-out: 72 h Growth inhibition GI50, MV-4-11 cells. Type of assay: cell-based. The text has this: The following compounds were used as comparators.
The target of the next assay is CDK6/CyclinD3 (Homo sapiens, UniProt Q00534). As to the kind of experiment: ADP Glo kinase assay, CDK6/CyclinD3. Type of assay: biochemical. The following applies: for Ki: Km ATP, read-out: Enzymatic inhibition, Ki, CDK6 D3; for remaining activity at 1 µM: compound at 1 μM, read-out: Residual enzymatic activity (%) at 1 μM, CDK6 D3. The method, then:
as §1

For the next assay, the target named is CDK7/CyclinH/Mat1 (Homo sapiens, UniProt P50613). As to the kind of experiment: ADP Glo kinase assay, CDK7/CyclinH/Mat1. In kind it is biochemical. The note with it: for remaining activity at 1 µM: compound at 1 μM, read-out: Residual enzymatic activity (%) at 1 μM, CDK7 H. The method, then:
as §1

Chain of CDK7/CyclinH/Mat1 (P50613 whole entry, species assumed): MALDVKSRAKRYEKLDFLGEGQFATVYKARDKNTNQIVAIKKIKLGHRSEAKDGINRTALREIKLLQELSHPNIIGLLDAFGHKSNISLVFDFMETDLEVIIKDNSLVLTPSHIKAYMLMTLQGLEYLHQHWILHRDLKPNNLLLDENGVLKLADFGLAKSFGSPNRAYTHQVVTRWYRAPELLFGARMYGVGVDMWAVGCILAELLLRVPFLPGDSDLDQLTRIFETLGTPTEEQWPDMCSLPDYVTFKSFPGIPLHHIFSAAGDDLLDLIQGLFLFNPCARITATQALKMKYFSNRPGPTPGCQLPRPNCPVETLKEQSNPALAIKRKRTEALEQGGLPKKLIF
Chain of CDK7/CyclinH/Mat1 (P51946 whole entry partner, species assumed): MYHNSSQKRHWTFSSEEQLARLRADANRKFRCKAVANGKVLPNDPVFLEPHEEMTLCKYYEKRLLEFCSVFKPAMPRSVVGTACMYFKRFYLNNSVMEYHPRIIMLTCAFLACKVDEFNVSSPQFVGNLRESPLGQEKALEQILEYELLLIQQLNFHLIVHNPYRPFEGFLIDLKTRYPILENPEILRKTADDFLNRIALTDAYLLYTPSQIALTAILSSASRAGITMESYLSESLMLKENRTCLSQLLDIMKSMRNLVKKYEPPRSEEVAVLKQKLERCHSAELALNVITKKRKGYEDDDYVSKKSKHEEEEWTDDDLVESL
Chain of CDK7/CyclinH/Mat1 (P51948 whole entry partner, species assumed): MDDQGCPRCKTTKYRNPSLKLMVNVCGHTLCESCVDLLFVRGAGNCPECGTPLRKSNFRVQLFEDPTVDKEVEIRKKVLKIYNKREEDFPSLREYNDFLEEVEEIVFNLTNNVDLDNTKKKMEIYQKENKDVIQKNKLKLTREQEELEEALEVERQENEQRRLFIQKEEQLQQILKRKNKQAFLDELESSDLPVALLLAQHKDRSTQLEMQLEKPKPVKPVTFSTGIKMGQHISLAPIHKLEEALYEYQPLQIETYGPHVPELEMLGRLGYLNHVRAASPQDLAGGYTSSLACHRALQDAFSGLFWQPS
Chain of CDK6/CyclinD3 (Q00534 whole entry, species assumed): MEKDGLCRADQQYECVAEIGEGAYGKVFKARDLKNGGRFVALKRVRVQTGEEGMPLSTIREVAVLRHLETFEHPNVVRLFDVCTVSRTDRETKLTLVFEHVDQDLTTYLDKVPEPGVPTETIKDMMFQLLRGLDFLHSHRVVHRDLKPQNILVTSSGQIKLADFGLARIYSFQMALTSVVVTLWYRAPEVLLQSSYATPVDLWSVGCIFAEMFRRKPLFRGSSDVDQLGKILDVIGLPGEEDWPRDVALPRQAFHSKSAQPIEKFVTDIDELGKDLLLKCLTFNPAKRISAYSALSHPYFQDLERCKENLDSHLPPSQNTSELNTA
Chain of CDK6/CyclinD3 (P30281 whole entry partner, species assumed): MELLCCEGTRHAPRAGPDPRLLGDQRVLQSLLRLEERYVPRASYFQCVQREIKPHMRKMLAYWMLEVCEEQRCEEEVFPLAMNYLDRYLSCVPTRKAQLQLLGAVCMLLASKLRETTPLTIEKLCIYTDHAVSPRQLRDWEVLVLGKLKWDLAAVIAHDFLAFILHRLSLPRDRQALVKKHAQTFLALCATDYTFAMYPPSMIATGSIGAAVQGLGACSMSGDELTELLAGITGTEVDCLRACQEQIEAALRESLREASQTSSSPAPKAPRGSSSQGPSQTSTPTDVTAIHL
Chain of CDK1/CyclinB (P06493 whole entry, species assumed): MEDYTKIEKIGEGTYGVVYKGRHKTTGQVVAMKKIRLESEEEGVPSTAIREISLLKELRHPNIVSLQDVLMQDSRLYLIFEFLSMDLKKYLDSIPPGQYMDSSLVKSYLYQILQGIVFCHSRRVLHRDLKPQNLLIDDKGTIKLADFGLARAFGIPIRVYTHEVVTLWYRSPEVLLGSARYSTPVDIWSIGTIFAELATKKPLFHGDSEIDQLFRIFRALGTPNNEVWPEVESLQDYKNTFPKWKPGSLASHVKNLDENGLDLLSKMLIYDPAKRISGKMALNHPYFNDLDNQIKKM
Chain of CDK1/CyclinB (P14635 whole entry partner, species assumed): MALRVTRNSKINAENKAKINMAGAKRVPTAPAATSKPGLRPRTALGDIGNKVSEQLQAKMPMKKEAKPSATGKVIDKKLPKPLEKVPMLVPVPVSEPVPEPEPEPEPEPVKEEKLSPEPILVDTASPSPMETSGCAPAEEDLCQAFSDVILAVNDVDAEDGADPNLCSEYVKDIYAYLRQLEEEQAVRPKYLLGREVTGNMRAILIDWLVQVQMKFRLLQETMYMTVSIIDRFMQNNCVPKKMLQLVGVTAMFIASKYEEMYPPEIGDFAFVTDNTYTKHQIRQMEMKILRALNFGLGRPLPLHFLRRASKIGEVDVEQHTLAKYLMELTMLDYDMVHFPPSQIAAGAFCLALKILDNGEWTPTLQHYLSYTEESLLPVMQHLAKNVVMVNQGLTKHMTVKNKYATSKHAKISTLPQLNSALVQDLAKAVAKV
Chain of CDK4/CyclinD1 (P11802 whole entry, species assumed): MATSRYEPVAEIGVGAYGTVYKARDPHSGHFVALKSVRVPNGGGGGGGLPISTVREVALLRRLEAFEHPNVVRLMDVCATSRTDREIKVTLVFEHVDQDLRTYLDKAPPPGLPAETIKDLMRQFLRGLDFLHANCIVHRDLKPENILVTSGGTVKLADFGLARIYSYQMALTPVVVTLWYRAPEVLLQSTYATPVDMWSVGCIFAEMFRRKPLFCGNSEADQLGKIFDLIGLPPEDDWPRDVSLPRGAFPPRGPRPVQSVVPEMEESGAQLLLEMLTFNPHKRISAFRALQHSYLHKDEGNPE
Chain of CDK4/CyclinD1 (P24385 whole entry partner, species assumed): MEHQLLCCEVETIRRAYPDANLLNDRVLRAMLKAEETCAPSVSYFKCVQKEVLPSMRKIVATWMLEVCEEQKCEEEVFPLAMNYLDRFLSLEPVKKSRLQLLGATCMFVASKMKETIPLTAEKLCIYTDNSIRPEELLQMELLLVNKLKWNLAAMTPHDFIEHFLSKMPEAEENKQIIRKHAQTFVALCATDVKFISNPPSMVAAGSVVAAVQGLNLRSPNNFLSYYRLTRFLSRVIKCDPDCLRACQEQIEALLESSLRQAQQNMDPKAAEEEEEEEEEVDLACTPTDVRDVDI

For `CN1CCN(c2ccc(Nc3nccc(-c4cnc5ccc(-c6cnn(C)c6)cn45)n3)cn2)CC1` [Compound 9, 4-(6-(1-Methyl-1H-pyrazol-4-yl)imidazo[1,2-a]pyridin-3-yl)-N-(6-(4-methylpiperazin-1-yl)pyridin-3-yl)pyrimidin-2-amine], the Ki on CDK1/CyclinB is 645 nM; at CDK2/CyclinA2, 1030 nM; on CDK4/CyclinD1, > 500 nM; on CDK9/CyclinT1 it was 2 nM; on FLT3-ITD, 15 nM. Besides, the “inhibition of CDK9 (in words)” value at CDK9/CyclinT1 (compared with comparator compounds A, B and C (N-(pyridin-2-yl)pyrimidin-2-amine moiety)) was “dramatically and surprisingly increased the potency of inhibition of CDK9”. For the same compound, the 50% growth inhibitory concentration (GI50) in the assay with MV-4-11 was 10 nM.
`CS(=O)(=O)N1CCN(c2ccc(Nc3nccc(-c4cnc5ccc(Br)cn45)n3)cn2)CC1` [Compound 16, 4-(6-Bromoimidazo[1,2-a]pyridin-3-yl)-N-(6-(4-(methylsulfonyl)piperazin-1-yl)pyridin-3-yl)pyrimidin-2-amine]: the inhibition constant (Ki) on CDK1/CyclinB was 153 nM; on CDK2/CyclinA2, 124 nM; at CDK4/CyclinD1, 718 nM; at CDK6/CyclinD3, 2090 nM; on CDK9/CyclinT1 it was 77 nM; on FLT3-ITD it was 7 nM. In the assay with MV-4-11, the 50% growth inhibitory concentration (GI50) was 10 nM.
With `CN1CCN(c2ccc(Nc3nccc(-c4cnc5ccc(-c6cnc(N)nc6)cn45)n3)cn2)CC1` [Compound 23, 4-(6-(2-Aminopyrimidin-5-yl)imidazo[1,2-a]pyridin-3-yl)-N-(6-(4-methylpiperazin-1-yl)pyridin-3-yl)pyrimidin-2-amine], the remaining activity at 1 µM at CDK1/CyclinB came to 67%; at CDK2/CyclinA2, 26%; on CDK4/CyclinD1, 72%; on CDK6/CyclinD3, 46%. The Ki at CDK9/CyclinT1 stood at 20 nM; on FLT3-ITD, 23 nM. Further, in the assay on MV-4-11, the GI50 was 181 nM.
Consider `CN1CCN(c2ccc(Nc3nccc(-c4cnc5ccc(-c6cn[nH]c6)cn45)n3)cn2)CC1` [Compound 24, 4-(6-(1H-Pyrazol-4-yl)imidazo[1,2-a]pyridin-3-yl)-N-(6-(4-methylpiperazin-1-yl)pyridin-3-yl)pyrimidin-2-amine], for which the Ki stood at 29 nM on CDK1/CyclinB, 42 nM at CDK2/CyclinA2, 4 nM on CDK9/CyclinT1 and 8 nM on FLT3-ITD. The remaining activity at 1 µM on CDK4/CyclinD1 was found to be 21%. For the same compound, the 50% growth inhibitory concentration (GI50) in the assay on MV-4-11 was found to be 33 nM.
With `Cc1ccc2ncc(-c3ccnc(Nc4ccc(N5CCN(C)CC5)nc4)n3)n2c1` [Compound 35, 4-(6-Methylimidazo[1,2-a]pyridin-3-yl)-N-(6-(4-methylpiperazin-1-yl)pyridin-3-yl)pyrimidin-2-amine], the Ki on CDK1/CyclinB amounted to 48 nM; at CDK2/CyclinA2, 15 nM; on CDK4/CyclinD1 it was 34 nM; at CDK7/CyclinH/Mat1 (Km ATP, read-out: Enzymatic inhibition, Ki, CDK7 H), 84 nM; at CDK9/CyclinT1, 4 nM; at FLT3-ITD, 16 nM. The GI50 with MV-4-11 is 4 nM.
For `CC(C)N1CCN(c2ccc(Nc3nccc(-c4cnc5ccc(Br)cn45)n3)cn2)CC1` [Compound 38, 4-(6-Bromoimidazo[1,2-a]pyridin-3-yl)-N-(6-(4-isopropylpiperazin-1-yl)pyridin-3-yl)pyrimidin-2-amine], the Ki on CDK1/CyclinB came to 145 nM; on CDK2/CyclinA2, 44 nM; at CDK4/CyclinD1 it was 49 nM; at CDK6/CyclinD3 it was 295 nM; on CDK9/CyclinT1, 10 nM; at FLT3-ITD it was 10 nM. The GI50 with MV-4-11 is 39 nM.
Regarding `CN(C)c1ccc(Nc2nccc(-c3cnc4ccc(C5=CCN(C(=O)OC(C)(C)C)CC5)cn34)n2)cn1` [Compound 67, Tert-butyl 4-(3-(2-((6-(dimethylamino)pyridin-3-yl)amino)pyrimidin-4-yl)imidazo[1,2-a]pyridin-6-yl)-3,6-dihydropyridine-1(2H)-carboxylate], the remaining activity at 1 µM at CDK1/CyclinB came to 67%; on CDK2/CyclinA2 it was 93%; on CDK6/CyclinD3, 78%; on CDK7/CyclinH/Mat1, 68%. Moreover, the Ki at CDK9/CyclinT1 is 1630 nM; at FLT3-ITD, > 500 nM. In the assay on MV-4-11, the GI50 was 362 nM.
In the case of `CN(C)c1ccc(Nc2nccc(-c3cnc4ccc(-c5ccc(F)nc5)cn34)n2)cn1` [Compound 68, N^5-(4-(6-(6-Fluoropyridin-3-yl)imidazo[1,2-a]pyridin-3-yl)pyrimidin-2-yl)-N^2,N^2-dimethylpyridine-2,5-diamine], the remaining activity at 1 µM came to 37% on CDK1/CyclinB, 61% at CDK2/CyclinA2, 81% at CDK6/CyclinD3 and 71% at CDK7/CyclinH/Mat1. For the same compound, the Ki on CDK9/CyclinT1 was determined as 174 nM; at FLT3-ITD, 62 nM. In the assay on MV-4-11, the GI50 is 13 nM.
As for `CN(C)c1ccc(Nc2nccc(-c3cnc4ccc(C5=CCNCC5)cn34)n2)cn1` [Compound 69, N^2,N^2-Dimethyl-N^5-(4-(6-(1,2,3,6-tetrahydropyridin-4-yl)imidazo[1,2-a]pyridin-3-yl)pyrimidin-2-yl)pyridine-2,5-diamine], the inhibition constant Ki at CDK1/CyclinB was determined as 116 nM; at CDK2/CyclinA2, 82 nM; on CDK9/CyclinT1 it was 16 nM. Besides, the remaining activity at 1 µM at CDK6/CyclinD3 came to 81%; at CDK7/CyclinH/Mat1, 65%. For the same compound, the “Residual enzymatic activity (%) at 1 μM, FLT3-ITD” value at FLT3-ITD (compound at 1 μM) is on record as 30%. Moreover, in the assay on MV-4-11, the GI50 amounted to 152 nM.
`CN1CCN(c2ccc(Nc3nccc(-c4cnc5ccc(-c6cnn(C(F)F)c6)cn45)n3)cn2)CC1` [Compound 70, 4-(6-(1-(Difluoromethyl)-1H-pyrazol-4-yl)imidazo[1,2-a]pyridin-3-yl)-N-(6-(4-methylpiperazin-1-yl)pyridin-3-yl)pyrimidin-2-amine]: the remaining activity at 1 µM turned out to be 32% on CDK1/CyclinB, 55% on CDK2/CyclinA2, 57% at CDK6/CyclinD3 and 40% on CDK7/CyclinH/Mat1. For the same compound, the figures for the inhibition constant Ki at CDK9/CyclinT1 and at FLT3-ITD were 7 nM and 12 nM, respectively. In addition, in the assay on MV-4-11, the GI50 was found to be 8 nM.
`O=C1NCCC12CCN(c1ccc(Nc3nccc(-c4cnc5ccc(Br)cn45)n3)cn1)CC2` [Compound 71, 8-(5-((4-(6-Bromoimidazo[1,2-a]pyridin-3-yl)pyrimidin-2-yl)amino)pyridin-2-yl)-2,8-diazaspiro[4.5]decan-1-one]: the remaining activity at 1 µM was found to be 95% on CDK1/CyclinB, 74% on CDK2/CyclinA2, 97% on CDK6/CyclinD3 and 91% at CDK7/CyclinH/Mat1. Also, the inhibition constant Ki at CDK9/CyclinT1 was > 500 nM; on FLT3-ITD, 24 nM. The GI50 in the assay with MV-4-11 is 12 nM.
`O=C1NCCC12CCN(c1ccc(Nc3nccc(-c4cnc5ccc(-c6ccccc6)cn45)n3)cn1)CC2` [Compound 72, 8-(5-((4-(6-Phenylimidazo[1,2-a]pyridin-3-yl)pyrimidin-2-yl)amino)pyridin-2-yl)-2,8-diazaspiro[4.5]decan-1-one]: the remaining activity at 1 µM on CDK1/CyclinB is 75%; on CDK2/CyclinA2, 64%; on CDK6/CyclinD3, 73%; at CDK7/CyclinH/Mat1 it was 59%. Also, the inhibitory constant (Ki) at CDK9/CyclinT1 was > 500 nM; at FLT3-ITD, 55 nM. The GI50 in the assay with MV-4-11 amounted to 5 nM.
